Measured values as given in ChEMBL document CHEMBL1201862, “PubChem BioAssay data set” (2004).
The source made the active and inactive calls.

Legend:
[1] = Luminescence Cell-Based Dose Confirmation HTS to Identify Activators of 5'UTR Stem-Loop Driven Alpha-Synuclein mRNA Translation in H4 Neuroglioblastoma Cells. [Related pubchem assays: 1829 (Project Summary), 1814 (Primary HTS)]; type: functional
[2] = Luminescence Cell-Based Dose Response HTS to Identify Activators of Luciferase Translation or Activity in H4 […] Cells. [Related pubchem assays: 1829 (Project Summary), 1814 (Primary HTS)]; type: functional
H4 = assay: Luminescence Cell-Based Dose Response HTS to Identify Activators of 5'UTR Stem-Loop Driven Prion Protein mRNA Translation in H4 Neuroglioblastoma Cells. [Related pubchem assays: 1829 (Project Summary), 1814 (Primary HTS)]; type: functional; conditions: Homo sapiens
[3] = acridine orange displacement from DNA – biochemical, fluorescence polarization, cherry-pick, artefact control for RAD54 inhibitor project, dose response (AID 651673); type: functional
[4] = biological target: T1, DNA repair and recombination protein RAD54-like (Homo sapiens, UniProt Q92698); assay: RAD54 Holliday junction migration blockers – biochemical, fluorescence, cherry-picked samples, dose series, confirmation (AID 651657); type: functional
T1 sequence (Q92698 whole entry): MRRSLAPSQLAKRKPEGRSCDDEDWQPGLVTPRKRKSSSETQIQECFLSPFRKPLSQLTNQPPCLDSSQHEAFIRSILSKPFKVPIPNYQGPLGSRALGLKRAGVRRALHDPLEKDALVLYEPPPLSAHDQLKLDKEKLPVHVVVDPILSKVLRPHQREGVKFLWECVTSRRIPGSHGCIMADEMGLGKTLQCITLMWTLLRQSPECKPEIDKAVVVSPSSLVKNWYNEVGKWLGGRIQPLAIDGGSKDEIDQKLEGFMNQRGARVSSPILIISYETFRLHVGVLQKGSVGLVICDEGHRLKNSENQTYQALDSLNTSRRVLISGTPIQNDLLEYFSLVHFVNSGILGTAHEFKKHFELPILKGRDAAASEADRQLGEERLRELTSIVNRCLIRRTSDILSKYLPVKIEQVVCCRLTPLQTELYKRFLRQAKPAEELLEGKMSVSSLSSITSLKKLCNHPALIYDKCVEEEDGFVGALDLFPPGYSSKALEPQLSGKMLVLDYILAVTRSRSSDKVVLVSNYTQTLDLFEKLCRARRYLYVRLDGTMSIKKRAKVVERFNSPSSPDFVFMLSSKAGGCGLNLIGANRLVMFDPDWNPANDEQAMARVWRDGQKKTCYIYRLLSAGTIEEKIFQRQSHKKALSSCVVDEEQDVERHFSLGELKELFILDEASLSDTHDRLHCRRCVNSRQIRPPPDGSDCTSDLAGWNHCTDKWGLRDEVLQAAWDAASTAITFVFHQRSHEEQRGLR

[5] = biological target: SWI/SNF-related matrix-associated actin-dependent regulator of chromatin subfamily A member 2 (Homo sapiens, UniProt P51531); assay: Luminescence-based cell-based high throughput dose response assay to identify activators of the function of SWI/SNF related, matrix associated, actin dependent regulator of chromatin, subfamily a, member 2 (SMARCA2, BRM).; type: functional
[6] = Counterscreen for activators of the function of SWI/SNF related, matrix associated, actin dependent regulator of chromatin, subfamily a, member 2 (SMARCA2, BRM): Luminescence-based cell-based high throughput dose response assay to identify non-selective compounds using the VP16 reporter assay.; type: functional
[7] = biological target: T2, DNA repair protein RAD52 homolog (Homo sapiens, UniProt P43351); type: functional, biochemical
T2 sequence (P43351 whole entry): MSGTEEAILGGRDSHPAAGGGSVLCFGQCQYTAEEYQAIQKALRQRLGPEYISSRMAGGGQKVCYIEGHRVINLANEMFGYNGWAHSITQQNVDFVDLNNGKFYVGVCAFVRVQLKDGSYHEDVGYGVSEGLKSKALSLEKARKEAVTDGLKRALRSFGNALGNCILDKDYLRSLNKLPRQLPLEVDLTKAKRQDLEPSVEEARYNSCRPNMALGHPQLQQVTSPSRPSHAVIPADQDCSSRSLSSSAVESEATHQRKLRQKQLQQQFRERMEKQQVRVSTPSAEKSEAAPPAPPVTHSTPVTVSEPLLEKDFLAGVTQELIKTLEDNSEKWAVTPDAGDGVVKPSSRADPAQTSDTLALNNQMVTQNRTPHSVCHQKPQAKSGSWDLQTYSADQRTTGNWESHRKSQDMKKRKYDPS

[8] = biological target: DNA (cytosine-5)-methyltransferase 1 (Homo sapiens, UniProt P26358); assay: inhibition of DNA methylation by DNMT1 – biochemical, fluorescent molecular beacon, confirmation (AID 602386); type: functional
[9] = biological target: T3, Probable nicotinate-nucleotide adenylyltransferase (Staphylococcus aureus (strain N315), UniProt P65502); type: functional, Staphylococcus aureus subsp. aureus N315;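 as to IC50 Mean: confirmatory dose-response retesting of NadD inhibitor hits first found in an ultra-high-throughput screen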
[10] = biological target: T3, Probable nicotinate-nucleotide adenylyltransferase; type: functional, Staphylococcus aureus subsp. aureus N315; conditions: read-out: IC50_Mean
Albumin = Albumin (Bos taurus, UniProt P02769); assay: Counterscreen for inhibitors of T-cell receptor (TCR)-CD3 interaction: Fluorescence-based biochemical high throughput dose response assay to identify inhibitors of T-cell receptor (TCR)-CD3 interaction using a TAMRA-labeled BSA probe.; type: functional
Kallikrein-7 = Kallikrein-7 (Homo sapiens, UniProt P49862); assay: Fluorescence Intensity-based biochemical primary high throughput dose response assay to identify activators of kallikrein-7 (K7) zymogen.
[11] = microbe, parasite or virus in culture; type: functional; conditions: Mycobacterium tuberculosis
[12] = biological target: Neurotensin receptor type 1 (Homo sapiens, UniProt P30989); type: functional;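 also: Image-based confirmatory dose-response assay measuring agonist activity at NTR1; NTR1-expressing U2OS osteosarcoma cells imaged for beta-arrestin GFP spot formation; agonist potency where compounds increase beta-arrestin recruitment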
[13] = biological target: Heat shock protein HSP 90-alpha (Homo sapiens, UniProt P07900); type: functional, organism-based
[14] = A Cell Based Secondary Assay to Explore Cytotoxicity in THP-1 Cells of Compounds that Modulate Mycobacterium tuberculosis in Media Containing Glycerol versus Media without Glycerol (2).; type: functional
[15] = Vero cell cytotoxicity, cytotoxicity control for M. tuberculosis inhibitor project, purified and synthesized samples, set 3 (AID 504684); type: functional
[16] = A Cell Based Secondary Assay to Explore Cytotoxicity in HepG2 Cells of Compounds that Modulate Mycobacterium tuberculosis in Media Containing Glycerol versus Media without Glycerol (2).; type: functional
[17] = biological target: Hepatocyte nuclear factor 4-alpha (Homo sapiens, UniProt P41235); type: functional, cell-based;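 also: biochemical luminescence-based dose-response counterscreen measuring inhibition of HNF4 dimerization, run alongside a screen for blockers of ABHD5–perilipin-5 interaction; split luciferase complementation of HNF4 fusion proteins in cell lysate measuring dimerization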
Beta-galactosidase = Beta-galactosidase (Escherichia coli, UniProt Q8VNN2); assay: detection-enzyme interference by beta-gal modulators – biochemical, E. coli enzyme, set 3, artefact control for CCR6 antagonist project, dose response (AID 504712); type: functional
[18] = reduction of Shn3 3'UTR-driven luciferase in osteoblasts – cell-based, Clone20 osteoblasts, firefly luciferase, cherry-picked, dose response (AID 624132); type: functional;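 also: firefly luciferase luminescence from reporter carrying the Shn3 3'UTR in osteoblasts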
[19] = loss of viability in HepG2 cells – cell-based, CellTiter-Glo, cherry-picked, cytotoxicity control for Shn3 inhibitor project, dose response (AID 624134); type: functional
[20] = non-specific 3'UTR reporter inhibition in Clone20-Shn3RL – cell-based, Renilla luciferase, cherry-picked, counter-screen for Shn3 inhibitor project, dose response (AID 624133); type: functional
[21] = Fluorescence-based cell-based high throughput dose response assay for inhibitors of the interaction of nucleotide-binding oligomerization domain containing 2 (NOD2) and the receptor-interacting serine-threonine kinase 2 (RIPK2).; type: functional; conditions: Homo sapiens
Beta Lactamase = Beta Lactamase (Pseudomonas aeruginosa, UniProt Q932Y6); assay: BLA reporter interference, concentration series – BLA reporter cells, FRET fluorescence, artefact control for NOD2-RIPK2 interaction inhibitor project, dose response (AID 651552); type: functional, cell-based
Paired box protein Pax-8 = Paired box protein Pax-8 (Homo sapiens, UniProt Q06710); assay: PAX8 transcriptional activity inhibition in RMG-I – RMG-I cells, luciferase, cherry-pick, dose response (AID 687027); type: functional, cell-based;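 also: luciferase reporter driven by Pax8 target thyroperoxidase promoter measured by SteadyGlo luminescence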
[22] = general cell-killing toxicity readout – plate reader, dry powder samples, cytotoxicity control for PAX8 inhibitor project, dose response (AID 743021); type: functional, cell-based
HEK293 [23] = assay: cells; conditions: Homo sapiens
HEK293 [24] = assay: cells; conditions: Homo sapiens; remark: listed apart in the source

T3 sequence (P65502 whole entry): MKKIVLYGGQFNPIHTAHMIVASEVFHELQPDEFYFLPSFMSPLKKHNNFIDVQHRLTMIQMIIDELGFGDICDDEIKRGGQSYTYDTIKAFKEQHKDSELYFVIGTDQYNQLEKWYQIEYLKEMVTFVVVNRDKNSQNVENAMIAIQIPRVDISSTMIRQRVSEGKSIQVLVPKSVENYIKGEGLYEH
Chain of Paired box protein Pax-8 (Q06710 whole entry): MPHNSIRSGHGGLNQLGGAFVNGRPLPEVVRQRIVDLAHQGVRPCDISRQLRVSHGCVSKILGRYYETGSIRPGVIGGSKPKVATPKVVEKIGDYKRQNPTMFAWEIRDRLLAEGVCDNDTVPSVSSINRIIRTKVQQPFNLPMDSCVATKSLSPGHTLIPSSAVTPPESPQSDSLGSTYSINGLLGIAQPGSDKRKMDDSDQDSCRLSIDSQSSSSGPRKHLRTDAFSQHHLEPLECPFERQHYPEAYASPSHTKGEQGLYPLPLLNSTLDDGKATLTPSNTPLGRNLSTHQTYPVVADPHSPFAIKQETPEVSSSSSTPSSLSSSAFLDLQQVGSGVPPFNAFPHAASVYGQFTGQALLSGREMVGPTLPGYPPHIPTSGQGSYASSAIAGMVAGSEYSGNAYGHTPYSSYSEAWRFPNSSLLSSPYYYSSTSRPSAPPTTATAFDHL
Chain of DNA (cytosine-5)-methyltransferase 1 (P26358 whole entry): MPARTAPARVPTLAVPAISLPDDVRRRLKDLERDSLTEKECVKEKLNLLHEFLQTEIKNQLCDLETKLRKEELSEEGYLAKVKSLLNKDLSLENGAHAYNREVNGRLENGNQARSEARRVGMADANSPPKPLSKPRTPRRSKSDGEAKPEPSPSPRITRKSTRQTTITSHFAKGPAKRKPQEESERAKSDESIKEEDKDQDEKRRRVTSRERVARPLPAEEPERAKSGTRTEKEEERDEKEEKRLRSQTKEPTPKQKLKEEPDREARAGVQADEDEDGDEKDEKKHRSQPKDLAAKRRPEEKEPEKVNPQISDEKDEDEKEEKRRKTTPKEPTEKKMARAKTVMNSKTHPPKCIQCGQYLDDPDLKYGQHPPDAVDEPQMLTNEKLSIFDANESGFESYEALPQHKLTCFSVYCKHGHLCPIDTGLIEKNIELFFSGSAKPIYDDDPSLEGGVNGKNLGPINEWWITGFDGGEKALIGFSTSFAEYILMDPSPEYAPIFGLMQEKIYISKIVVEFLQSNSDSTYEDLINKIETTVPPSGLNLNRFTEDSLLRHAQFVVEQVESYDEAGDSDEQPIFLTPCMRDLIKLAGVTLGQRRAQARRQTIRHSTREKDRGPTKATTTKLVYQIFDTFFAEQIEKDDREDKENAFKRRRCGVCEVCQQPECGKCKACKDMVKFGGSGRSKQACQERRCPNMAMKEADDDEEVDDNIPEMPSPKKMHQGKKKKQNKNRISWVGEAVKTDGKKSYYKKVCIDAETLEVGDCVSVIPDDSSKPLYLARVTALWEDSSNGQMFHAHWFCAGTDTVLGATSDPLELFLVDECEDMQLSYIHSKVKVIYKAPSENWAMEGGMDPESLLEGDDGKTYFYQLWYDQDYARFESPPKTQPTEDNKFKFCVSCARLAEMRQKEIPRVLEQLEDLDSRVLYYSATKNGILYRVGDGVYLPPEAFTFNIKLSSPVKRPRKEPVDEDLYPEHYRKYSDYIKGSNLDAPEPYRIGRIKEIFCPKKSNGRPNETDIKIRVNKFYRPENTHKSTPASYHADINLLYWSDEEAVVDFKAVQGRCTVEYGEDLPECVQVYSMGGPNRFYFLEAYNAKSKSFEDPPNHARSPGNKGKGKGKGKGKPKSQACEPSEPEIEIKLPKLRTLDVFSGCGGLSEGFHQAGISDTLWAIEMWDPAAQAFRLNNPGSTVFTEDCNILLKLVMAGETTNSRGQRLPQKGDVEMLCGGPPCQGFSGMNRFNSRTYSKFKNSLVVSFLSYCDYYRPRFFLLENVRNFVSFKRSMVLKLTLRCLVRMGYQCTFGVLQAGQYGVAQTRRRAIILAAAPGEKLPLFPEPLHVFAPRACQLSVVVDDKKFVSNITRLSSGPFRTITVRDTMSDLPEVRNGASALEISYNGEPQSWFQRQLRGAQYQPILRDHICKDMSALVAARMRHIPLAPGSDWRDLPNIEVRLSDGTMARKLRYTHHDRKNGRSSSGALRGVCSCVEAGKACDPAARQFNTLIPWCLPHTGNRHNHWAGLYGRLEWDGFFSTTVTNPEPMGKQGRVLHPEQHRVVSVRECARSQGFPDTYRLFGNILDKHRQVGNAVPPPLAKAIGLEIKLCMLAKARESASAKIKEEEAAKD
Chain of Kallikrein-7 (P49862 whole entry): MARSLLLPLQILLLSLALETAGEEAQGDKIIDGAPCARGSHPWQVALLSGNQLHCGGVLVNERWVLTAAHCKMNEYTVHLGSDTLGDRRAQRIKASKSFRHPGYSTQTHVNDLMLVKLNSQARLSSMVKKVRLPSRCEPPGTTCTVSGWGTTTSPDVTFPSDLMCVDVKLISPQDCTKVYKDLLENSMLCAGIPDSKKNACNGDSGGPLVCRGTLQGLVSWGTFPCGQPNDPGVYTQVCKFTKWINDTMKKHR
Chain of Beta Lactamase (Q932Y6 whole entry): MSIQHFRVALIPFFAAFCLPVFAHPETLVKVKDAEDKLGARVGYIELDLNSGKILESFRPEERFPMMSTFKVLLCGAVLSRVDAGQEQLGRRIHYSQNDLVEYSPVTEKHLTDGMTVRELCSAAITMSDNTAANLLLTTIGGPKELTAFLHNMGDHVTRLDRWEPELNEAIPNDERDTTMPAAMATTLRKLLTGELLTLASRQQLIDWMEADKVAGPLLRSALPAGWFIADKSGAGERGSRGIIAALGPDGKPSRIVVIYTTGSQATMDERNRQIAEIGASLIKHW
Chain of SWI/SNF-related matrix-associated actin-dependent regulator of chromatin subfamily A member 2 (P51531 whole entry): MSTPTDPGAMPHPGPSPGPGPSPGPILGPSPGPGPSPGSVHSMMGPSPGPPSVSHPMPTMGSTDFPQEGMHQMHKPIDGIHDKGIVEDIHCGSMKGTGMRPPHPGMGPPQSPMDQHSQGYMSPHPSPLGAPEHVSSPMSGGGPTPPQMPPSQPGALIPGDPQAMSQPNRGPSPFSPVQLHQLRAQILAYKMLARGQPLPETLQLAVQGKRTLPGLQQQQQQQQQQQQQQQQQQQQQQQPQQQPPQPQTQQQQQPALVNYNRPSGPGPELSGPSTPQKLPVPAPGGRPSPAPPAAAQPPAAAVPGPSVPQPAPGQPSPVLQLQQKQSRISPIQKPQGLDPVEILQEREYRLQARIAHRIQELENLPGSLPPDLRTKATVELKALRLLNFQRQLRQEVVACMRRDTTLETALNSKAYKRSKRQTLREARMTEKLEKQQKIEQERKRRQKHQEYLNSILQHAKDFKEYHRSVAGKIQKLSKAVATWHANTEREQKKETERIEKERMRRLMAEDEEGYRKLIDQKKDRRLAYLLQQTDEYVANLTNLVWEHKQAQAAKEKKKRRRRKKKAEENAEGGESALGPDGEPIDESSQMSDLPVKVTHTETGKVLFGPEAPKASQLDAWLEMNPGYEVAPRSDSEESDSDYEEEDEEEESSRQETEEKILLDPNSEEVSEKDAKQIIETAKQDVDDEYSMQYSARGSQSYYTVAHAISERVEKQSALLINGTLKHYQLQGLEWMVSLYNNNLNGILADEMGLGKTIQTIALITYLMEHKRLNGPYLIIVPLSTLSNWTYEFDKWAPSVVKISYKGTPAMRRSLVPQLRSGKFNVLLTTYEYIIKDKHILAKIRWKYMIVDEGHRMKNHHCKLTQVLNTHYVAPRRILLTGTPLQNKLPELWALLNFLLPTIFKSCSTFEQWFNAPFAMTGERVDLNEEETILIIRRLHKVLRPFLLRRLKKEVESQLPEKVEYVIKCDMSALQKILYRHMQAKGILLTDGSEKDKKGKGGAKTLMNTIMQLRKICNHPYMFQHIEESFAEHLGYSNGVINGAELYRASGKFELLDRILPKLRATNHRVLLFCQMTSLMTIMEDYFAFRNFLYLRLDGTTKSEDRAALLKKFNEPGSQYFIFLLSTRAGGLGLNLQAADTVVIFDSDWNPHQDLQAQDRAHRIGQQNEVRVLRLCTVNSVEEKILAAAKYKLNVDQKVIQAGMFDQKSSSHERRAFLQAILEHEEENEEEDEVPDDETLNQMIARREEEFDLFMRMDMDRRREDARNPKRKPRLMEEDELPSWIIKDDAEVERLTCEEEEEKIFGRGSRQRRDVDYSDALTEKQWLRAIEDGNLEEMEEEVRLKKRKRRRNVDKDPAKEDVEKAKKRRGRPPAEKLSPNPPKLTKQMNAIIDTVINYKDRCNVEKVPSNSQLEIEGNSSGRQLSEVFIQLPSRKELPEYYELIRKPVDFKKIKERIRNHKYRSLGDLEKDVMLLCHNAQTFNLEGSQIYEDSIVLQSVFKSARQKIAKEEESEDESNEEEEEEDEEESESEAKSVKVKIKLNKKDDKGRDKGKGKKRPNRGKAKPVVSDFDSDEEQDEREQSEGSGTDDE
Chain of Neurotensin receptor type 1 (P30989 whole entry): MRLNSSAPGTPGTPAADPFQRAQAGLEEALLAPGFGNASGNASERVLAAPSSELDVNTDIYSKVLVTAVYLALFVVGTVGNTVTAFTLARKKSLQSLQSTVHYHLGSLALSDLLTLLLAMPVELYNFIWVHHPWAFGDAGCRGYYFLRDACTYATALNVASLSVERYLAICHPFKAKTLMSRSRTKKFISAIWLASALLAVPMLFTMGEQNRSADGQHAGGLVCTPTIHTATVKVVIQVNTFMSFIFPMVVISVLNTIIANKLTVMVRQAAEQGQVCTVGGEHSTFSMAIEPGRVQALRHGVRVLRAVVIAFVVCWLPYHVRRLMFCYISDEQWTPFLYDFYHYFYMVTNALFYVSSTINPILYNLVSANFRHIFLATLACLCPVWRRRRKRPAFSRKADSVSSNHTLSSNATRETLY

For `CCN(CC)CCn1c2ccccc2c2nc3ccccc3nc21`, the EC50 [1] was 31.8 µM (active), the EC50 [2] was 15.1 µM (active) and the EC50 (H4) was 29.6 µM (active). The AC50 [3] was 64 µM (active), the AC50 [4] was 7.12 µM (active) and the EC50 [5] was 10.1 µM (inactive). The EC50 [6] was > 91.1 µM (inactive) and the AC50 [7] was 3.27 µM (active).
With `COC(=O)C1CCN(C(=O)c2cc(-c3ccco3)nc3ccccc23)CC1` the IC50 [8] was 7.31 µM (active), the IC50 [9] was 18.8 µM (active) and the IC50 [10] was 44.6 µM (active). The IC50 (Albumin) was > 94.1 µM (inactive) and the EC50 (Kallikrein-7) was > 69.5 µM (inactive).
For `COC(=O)c1cc(=O)n(-c2ccc(F)cc2)/c(=N/c2ccc(F)cc2)s1`, the CC50 [11] was 13.9 µM (active), the EC50 [12] was 11.1 µM (active) and the AC50 [13] was 8.18 µM (active). For the same molecule, the CC50 [14] was 21.5 µM (active), the CC50 [15] was 12.9 µM (active) and the CC50 [16] was 24.1 µM (active). For the same molecule, the IC50 [17] was 4.1 µM (active).
For `C=C1CC(Cn2cc(Br)c(=O)[nH]c2=O)(c2ccc(-c3ccccc3)cc2)OC1=O` (stereo not given), the IC50 (Beta-galactosidase) was > 66.6 µM (inactive), the AC50 [18] was 2.67 µM (active) and the AC50 [19] was 13.6 µM (active). The AC50 [20] was 4.16 µM (active), the IC50 [21] was 2.2 µM (active) and the IC50 (Beta Lactamase) was 12.2 µM (inactive). The AC50 (Paired box protein Pax-8) was 6.49 µM (active), the AC50 [22] was 55.6 µM (active) and the EC50 (HEK293 [23]) was > 59.7 µM (inactive). For the same molecule, the EC50 (HEK293 [24]) was > 59.7 µM (inactive).
